Test results as given in US4243408A, “Herbicidal N-triazolylmethyl-substituted alpha-haloacetanilide” (Chevron Research Company, priority 1978, dated 1981).

What was measured:
Assay type in all cases: in vivo
[1] = system: Crabgrass (Digitaria sanguinalis); assay: Pre-Emergent Test, herbicidal effectiveness; settings: pre-emergence, 504 h, 33 micrograms per cm^2, 3 weeks, 0-to-100 scale, read-out: Herbicidal Effectiveness, % Control Pre, C
How it was run: (§1)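 Compound formulated in acetone with nonionic surfactant, diluted into surfactant-containing water, and sprayed uniformly onto soil of freshly seeded pots at 33 micrograms/cm^2. Pots were watered and kept in a greenhouse, then phytotoxicity was rated visually on a 0–100 scale (0 = none, 100 = complete kill).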

[2] = system: Mustard (Brassica arvensis); assay: Pre-Emergent Test, herbicidal effectiveness; settings: pre-emergence, 504 h, 33 micrograms per cm^2, 3 weeks, 0-to-100 scale
How it was run: as §1

[3] = system: Pigweed (Amaranthus retroflexus); assay: Pre-Emergent Test, herbicidal effectiveness; settings: pre-emergence, 504 h, 33 micrograms per cm^2, 3 weeks, 0-to-100 scale, read-out: Herbicidal Effectiveness, % Control Pre, P
How it was run: as §1

[4] = system: Lambsquarter (Chenopodium album); assay: Pre-Emergent Test, herbicidal effectiveness; settings: pre-emergence, 504 h, 33 micrograms per cm^2, 3 weeks, 0-to-100 scale, read-out: Herbicidal Effectiveness, % Control Pre, L
How it was run: as §1

[5] = system: Watergrass (Echinochloa); assay: Pre-Emergent Test, herbicidal effectiveness; settings: pre-emergence, 504 h, 33 micrograms per cm^2, 3 weeks, 0-to-100 scale, read-out: Herbicidal Effectiveness, % Control Pre, W
How it was run: as §1

[6] = system: Wild Oats (Avena fatua); assay: Pre-Emergent Test, herbicidal effectiveness; settings: pre-emergence, 504 h, 33 micrograms per cm^2, 3 weeks, 0-to-100 scale, read-out: Herbicidal Effectiveness, % Control Pre, O
How it was run: as §1

[7] = system: Crabgrass (Digitaria sanguinalis); assay: Post-Emergent Test, herbicidal effectiveness; settings: post-emergence, 504 h, 33 micrograms per cm^2, 3 weeks, 0-to-100 scale, read-out: Herbicidal Effectiveness, % Control Post, C
How it was run: (§2)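 Compound in acetone with nonionic surfactant, diluted in water to a 5000 ppm formulation, was sprayed on 24-day-old plants (about 15 to 25 per pot, 2 pots) at 33 micrograms/cm^2. Plants were then kept in a greenhouse with base watering. Rated after 3 weeks on a 0-to-100 scale (0 = no phytotoxicity, 100 = complete kill).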

[8] = system: Mustard (Brassica arvensis); assay: Post-Emergent Test, herbicidal effectiveness; settings: post-emergence, 504 h, 33 micrograms per cm^2, 3 weeks, 0-to-100 scale
How it was run: as §2

[9] = system: Pigweed (Amaranthus retroflexus); assay: Post-Emergent Test, herbicidal effectiveness; settings: post-emergence, 504 h, 33 micrograms per cm^2, 3 weeks, 0-to-100 scale, read-out: Herbicidal Effectiveness, % Control Post, P
How it was run: as §2

[10] = system: Lambsquarter (Chenopodium album); assay: Post-Emergent Test, herbicidal effectiveness; settings: post-emergence, 504 h, 33 micrograms per cm^2, 3 weeks, 0-to-100 scale, read-out: Herbicidal Effectiveness, % Control Post, L
How it was run: as §2

[11] = system: Watergrass (Echinochloa); assay: Post-Emergent Test, herbicidal effectiveness; settings: post-emergence, 504 h, 33 micrograms per cm^2, 3 weeks, 0-to-100 scale, read-out: Herbicidal Effectiveness, % Control Post, W
How it was run: as §2

[12] = system: Wild Oats (Avena fatua); assay: Post-Emergent Test, herbicidal effectiveness; settings: post-emergence, 504 h, 33 micrograms per cm^2, 3 weeks, 0-to-100 scale, read-out: Herbicidal Effectiveness, % Control Post, O
How it was run: as §2

| SMILES | pest or weed control at 33 µg/cm2 [1] [%] | pest or weed control at 33 µg/cm2 [2] [%] | pest or weed control at 33 µg/cm2 [3] [%] | pest or weed control at 33 µg/cm2 [4] [%] | pest or weed control at 33 µg/cm2 [5] [%] | pest or weed control at 33 µg/cm2 [6] [%] | pest or weed control at 5000 µg/mL, 33 µg/cm2 [7] [%] | pest or weed control at 5000 µg/mL, 33 µg/cm2 [8] [%] | pest or weed control at 5000 µg/mL, 33 µg/cm2 [9] [%] | pest or weed control at 5000 µg/mL, 33 µg/cm2 [10] [%] | pest or weed control at 5000 µg/mL, 33 µg/cm2 [11] [%] | pest or weed control at 5000 µg/mL, 33 µg/cm2 [12] [%] |
| --- | --- | --- | --- | --- | --- | --- | --- | --- | --- | --- | --- | --- |
| CCc1cccc(C)c1NCc1nnc(S)n1C [Compound 19] | 0 | 0 | 0 | 0 | 0 | 0 | 0 | 0 | 0 | 0 | 0 | 0 |
| CSc1nnc(CN(C(=O)CCl)c2c(C)cccc2C)n1C [Compound 14B] | 90 | 0 | 0 | 0 | 100 | 10 | 0 | 0 | 0 | 0 | 0 | 0 |
| CSc1nnc(CN(C(=O)CCl)c2c(C)cccc2C)o1 [Compound 24B] | 100 | 10 | 10 | 10 | 100 | 85 | 0 | 0 | 0 | 0 | 0 | 0 |
| CCc1cccc(CC)c1N(Cc1nnc(SC)n1C)C(=O)CCl [Compound 23B] | 0 | 0 | 0 | 0 | 0 | 0 | 0 | 0 | 0 | 0 | 0 | 0 |
| Cc1cccc(C)c1NCc1nnc[nH]1 [Compound 9A] | 0 | 0 | 0 | 0 | 0 | 0 | 0 | 0 | 0 | 0 | 0 | 0 |
| Cc1cccc(C)c1N(C(=O)CCl)C(C)c1nnc[nH]1 (stereo not drawn) [Compound 12B] | 100 | 75 | 90 | 75 | 100 | 97 | 65 | 0 | 20 | 45 | 80 | 45 |
| CCc1cccc(C)c1NCc1nnc[nH]1 [Compound 17A] | 0 | 0 | 0 | 0 | 0 | 0 | 0 | 0 | 0 | 0 | 0 | 0 |
